Results: PubChem BioAssay AID1963835 (Molecular Pharmacology Branch, DTP, NCI, 2024)

Tested on: 699152-130-R-J1-PDC complex spheroid viability
Experiment: Anticancer human tumor 699152-130-R-J1-PDC patient-derived pancreatic carcinoma cell line growth inhibition [POLQ]
Conditions: for IC50: curve of first compound; for viability, T/C: stronger effect = lower value
Outline: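 PDC + HUVEC + MSC complex spheroids; POLQ inhibitors ± partner drugs; top conc. at/near clinical Cmax, else 10 microM (SN-38 1 microM), half-log dilutions; 37 degrees C, 5% CO2.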

[1] = second compound 0.0316 µM, first compound 0.0316 µM
[2] = second compound 0.0316 µM, first compound 0.1 µM
[3] = second compound 0.0316 µM, first compound 0.316 µM
[4] = second compound 0.0316 µM, first compound 1 µM
[5] = second compound 0.0316 µM, first compound 3.16 µM
[6] = second compound 0.0316 µM, first compound 10 µM
[7] = second compound 0.1 µM, first compound 0.0316 µM
[8] = second compound 0.1 µM, first compound 0.1 µM
[9] = second compound 0.1 µM, first compound 0.316 µM
[10] = second compound 0.1 µM, first compound 1 µM
[11] = second compound 0.1 µM, first compound 3.16 µM
[12] = second compound 0.1 µM, first compound 10 µM
[13] = second compound 0.316 µM, first compound 0.0316 µM
[14] = second compound 0.316 µM, first compound 0.1 µM
[15] = second compound 0.316 µM, first compound 0.316 µM
[16] = second compound 0.316 µM, first compound 1 µM
[17] = second compound 0.316 µM, first compound 3.16 µM
[18] = second compound 0.316 µM, first compound 10 µM
[19] = second compound 1 µM, first compound 0.0316 µM
[20] = second compound 1 µM, first compound 0.1 µM
[21] = second compound 1 µM, first compound 0.316 µM
[22] = second compound 1 µM, first compound 1 µM
[23] = second compound 1 µM, first compound 3.16 µM
[24] = second compound 1 µM, first compound 10 µM
[25] = second compound 3.16 µM, first compound 0.0316 µM
[26] = second compound 3.16 µM, first compound 0.1 µM
[27] = second compound 3.16 µM, first compound 0.316 µM
[28] = second compound 3.16 µM, first compound 1 µM
[29] = second compound 3.16 µM, first compound 3.16 µM
[30] = second compound 3.16 µM, first compound 10 µM
[31] = second compound 10 µM, first compound 0.0316 µM
[32] = second compound 10 µM, first compound 0.1 µM
[33] = second compound 10 µM, first compound 0.316 µM
[34] = second compound 10 µM, first compound 1 µM
[35] = second compound 10 µM, first compound 3.16 µM
[36] = second compound 10 µM, first compound 10 µM
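Note: spheroids exposed to agents for 7 days before viability reading.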
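Throughout, for viability, T/C: percent of DMSO vehicle control viability so 100% = vehicle and 0% = no viable signal.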

**Q.** What does the source list for `C#Cc1c(F)ccc2cc(O)cc(-c3ncc4c(N5CC6CCC(C5)N6)nc(OCC56CCCN5CC(F)C6)nc4c3F)c12` (stereo unspecified) + Nc1ccc(C#CCN(C(=O)Cc2ncc(C(F)(F)F)cc2C(F)(F)F)c2ccc(F)cc2)nn1?
**A.** IC50 (second compound 0.0316 µM): < 31.6 nM; IC50 (second compound 0.1 µM): < 31.6 nM; IC50 (second compound 0.316 µM): < 31.6 nM; IC50 (second compound 1 µM): < 31.6 nM; IC50 (second compound 3.16 µM): < 31.6 nM; IC50 (second compound 10 µM): < 31.6 nM; viability, T/C [1]: 26%; viability, T/C [2]: 18.8%; viability, T/C [3]: 14.6%; viability, T/C [4]: 12.1%; viability, T/C [5]: 14.2%; viability, T/C [6]: 11.9%; viability, T/C [7]: 25.1%; viability, T/C [8]: 21.8%; viability, T/C [9]: 15.4%; viability, T/C [10]: 13.7%; viability, T/C [11]: 13.3%; viability, T/C [12]: 13.2%; viability, T/C [13]: 24%; viability, T/C [14]: 16.3%; viability, T/C [15]: 18.9%; viability, T/C [16]: 12.3%; viability, T/C [17]: 12.4%; viability, T/C [18]: 12.1%; viability, T/C [19]: 18.8%; viability, T/C [20]: 18.8%; viability, T/C [21]: 13.5%; viability, T/C [22]: 12.8%; viability, T/C [23]: 12.8%; viability, T/C [24]: 12.4%; viability, T/C [25]: 21.6%; viability, T/C [26]: 16.9%; viability, T/C [27]: 13%; viability, T/C [28]: 13.3%; viability, T/C [29]: 11.8%; viability, T/C [30]: 14.2%; viability, T/C [31]: 32.2%; viability, T/C [32]: 18.8%; viability, T/C [33]: 14.3%; viability, T/C [34]: 14.6%; viability, T/C [35]: 13.5%; viability, T/C [36]: 11.5%

**Q.** Which IC50 (second compound 0.0316 µM) does the source give for `Cn1ncnc1[C@H]1c2n[nH]c(=O)c3cc(F)cc(c23)N[C@@H]1c1ccc(F)cc1` + Cc1cccc(N(C)C(=O)C2C(O)CCN2c2nc(C)cc(C(F)(F)F)c2C#N)c1 here?
**A.** > 100 nM

**Q.** And the IC50 (second compound 0.1 µM)?
**A.** > 100 nM

**Q.** What about the IC50 (second compound 0.316 µM) of the same molecule?
**A.** > 100 nM

**Q.** What about the IC50 (second compound 1 µM) of the same molecule?
**A.** > 100 nM

**Q.** And the IC50 (second compound 3.16 µM)?
**A.** > 100 nM

**Q.** What about the IC50 (second compound 10 µM) of the same molecule?
**A.** > 100 nM

**Q.** And the viability, T/C (second compound 0.0316 µM, first compound 0.000316 µM)?
**A.** 103%

**Q.** What about the viability, T/C (second compound 0.0316 µM, first compound 0.001 µM) of the same molecule?
**A.** 87.7%

**Q.** And the viability, T/C (second compound 0.0316 µM, first compound 0.00316 µM)?
**A.** 95.1%

**Q.** And the viability, T/C (second compound 0.0316 µM, first compound 0.01 µM)?
**A.** 88.6%

**Q.** What about the viability, T/C [1] of the same molecule?
**A.** 99.4%

**Q.** What about the viability, T/C [2] of the same molecule?
**A.** 81%

**Q.** And the viability, T/C (second compound 0.1 µM, first compound 0.000316 µM)?
**A.** 100%

**Q.** And the viability, T/C (second compound 0.1 µM, first compound 0.001 µM)?
**A.** 100%

**Q.** What about the viability, T/C (second compound 0.1 µM, first compound 0.00316 µM) of the same molecule?
**A.** 91.6%

**Q.** What about the viability, T/C (second compound 0.1 µM, first compound 0.01 µM) of the same molecule?
**A.** 99.3%

**Q.** And the viability, T/C [7]?
**A.** 85.3%

**Q.** What about the viability, T/C [8] of the same molecule?
**A.** 86.6%

**Q.** What about the viability, T/C (second compound 0.316 µM, first compound 0.000316 µM) of the same molecule?
**A.** 94.8%

**Q.** What about the viability, T/C (second compound 0.316 µM, first compound 0.001 µM) of the same molecule?
**A.** 97.6%

**Q.** And the viability, T/C (second compound 0.316 µM, first compound 0.00316 µM)?
**A.** 86.4%

**Q.** And the viability, T/C (second compound 0.316 µM, first compound 0.01 µM)?
**A.** 89.3%

**Q.** What about the viability, T/C [13] of the same molecule?
**A.** 117%

**Q.** And the viability, T/C [14]?
**A.** 73.6%

**Q.** What about the viability, T/C (second compound 1 µM, first compound 0.000316 µM) of the same molecule?
**A.** 100%

**Q.** And the viability, T/C (second compound 1 µM, first compound 0.001 µM)?
**A.** 89.6%

**Q.** What about the viability, T/C (second compound 1 µM, first compound 0.00316 µM) of the same molecule?
**A.** 95%

**Q.** What about the viability, T/C (second compound 1 µM, first compound 0.01 µM) of the same molecule?
**A.** 87.2%

**Q.** What about the viability, T/C [19] of the same molecule?
**A.** 108%

**Q.** What about the viability, T/C [20] of the same molecule?
**A.** 87.2%

**Q.** And the viability, T/C (second compound 3.16 µM, first compound 0.000316 µM)?
**A.** 94.1%

**Q.** And the viability, T/C (second compound 3.16 µM, first compound 0.001 µM)?
**A.** 102%

**Q.** What about the viability, T/C (second compound 3.16 µM, first compound 0.00316 µM) of the same molecule?
**A.** 93.8%

**Q.** And the viability, T/C (second compound 3.16 µM, first compound 0.01 µM)?
**A.** 95.7%

**Q.** And the viability, T/C [25]?
**A.** 93%

**Q.** What about the viability, T/C [26] of the same molecule?
**A.** 90.7%

**Q.** What about the viability, T/C (second compound 10 µM, first compound 0.000316 µM) of the same molecule?
**A.** 104%

**Q.** And the viability, T/C (second compound 10 µM, first compound 0.001 µM)?
**A.** 81.8%

**Q.** And the viability, T/C (second compound 10 µM, first compound 0.00316 µM)?
**A.** 97.1%

**Q.** And the viability, T/C (second compound 10 µM, first compound 0.01 µM)?
**A.** 88.5%

**Q.** And the viability, T/C [31]?
**A.** 101%

**Q.** And the viability, T/C [32]?
**A.** 83.5%

**Q.** Which results are given for `O=c1[nH]cc(F)c(=O)[nH]1` + Nc1ccc(C#CCN(C(=O)Cc2ncc(C(F)(F)F)cc2C(F)(F)F)c2ccc(F)cc2)nn1?
**A.** IC50 (second compound 0.0316 µM): > 10000 nM; IC50 (second compound 0.1 µM): > 10000 nM; IC50 (second compound 0.316 µM): > 10000 nM; IC50 (second compound 1 µM): > 10000 nM; IC50 (second compound 3.16 µM): > 10000 nM; IC50 (second compound 10 µM): > 10000 nM; viability, T/C [1]: 105%; viability, T/C [2]: 105%; viability, T/C [3]: 99.3%; viability, T/C [4]: 97.9%; viability, T/C [5]: 98.1%; viability, T/C [6]: 82.1%; viability, T/C [7]: 100%; viability, T/C [8]: 121%; viability, T/C [9]: 104%; viability, T/C [10]: 88.7%; viability, T/C [11]: 97.3%; viability, T/C [12]: 76.9%; viability, T/C [13]: 108%; viability, T/C [14]: 104%; viability, T/C [15]: 103%; viability, T/C [16]: 102%; viability, T/C [17]: 97.5%; viability, T/C [18]: 81.5%; viability, T/C [19]: 113%; viability, T/C [20]: 95.5%; viability, T/C [21]: 97.6%; viability, T/C [22]: 103%; viability, T/C [23]: 87.8%; viability, T/C [24]: 75.9%; viability, T/C [25]: 111%; viability, T/C [26]: 104%; viability, T/C [27]: 93.9%; viability, T/C [28]: 95.6%; viability, T/C [29]: 104%; viability, T/C [30]: 88.4%; viability, T/C [31]: 116%; viability, T/C [32]: 110%; viability, T/C [33]: 119%; viability, T/C [34]: 105%; viability, T/C [35]: 105%; viability, T/C [36]: 87.7%
